According to PubChem BioAssay AID602168 (The Scripps Research Institute Molecular Screening Center, 2012):
pIC50: −log10 of the molar value. Calls of active or inactive are those of the source. No rule for the calls is given here.

Biological target: Nuclear receptor coactivator 1 (Homo sapiens) (UniProt Q15788)
Assay: NCOA1 reporter inhibition potency – cell-based, luminescence, counter-screen for SRC3 inhibitor project, dose response (AID 602168)
Conditions: Cell-based SRC1 luciferase reporter

Nuclear receptor coactivator 1 (Homo sapiens), sequence (Q15788 whole entry, looked up): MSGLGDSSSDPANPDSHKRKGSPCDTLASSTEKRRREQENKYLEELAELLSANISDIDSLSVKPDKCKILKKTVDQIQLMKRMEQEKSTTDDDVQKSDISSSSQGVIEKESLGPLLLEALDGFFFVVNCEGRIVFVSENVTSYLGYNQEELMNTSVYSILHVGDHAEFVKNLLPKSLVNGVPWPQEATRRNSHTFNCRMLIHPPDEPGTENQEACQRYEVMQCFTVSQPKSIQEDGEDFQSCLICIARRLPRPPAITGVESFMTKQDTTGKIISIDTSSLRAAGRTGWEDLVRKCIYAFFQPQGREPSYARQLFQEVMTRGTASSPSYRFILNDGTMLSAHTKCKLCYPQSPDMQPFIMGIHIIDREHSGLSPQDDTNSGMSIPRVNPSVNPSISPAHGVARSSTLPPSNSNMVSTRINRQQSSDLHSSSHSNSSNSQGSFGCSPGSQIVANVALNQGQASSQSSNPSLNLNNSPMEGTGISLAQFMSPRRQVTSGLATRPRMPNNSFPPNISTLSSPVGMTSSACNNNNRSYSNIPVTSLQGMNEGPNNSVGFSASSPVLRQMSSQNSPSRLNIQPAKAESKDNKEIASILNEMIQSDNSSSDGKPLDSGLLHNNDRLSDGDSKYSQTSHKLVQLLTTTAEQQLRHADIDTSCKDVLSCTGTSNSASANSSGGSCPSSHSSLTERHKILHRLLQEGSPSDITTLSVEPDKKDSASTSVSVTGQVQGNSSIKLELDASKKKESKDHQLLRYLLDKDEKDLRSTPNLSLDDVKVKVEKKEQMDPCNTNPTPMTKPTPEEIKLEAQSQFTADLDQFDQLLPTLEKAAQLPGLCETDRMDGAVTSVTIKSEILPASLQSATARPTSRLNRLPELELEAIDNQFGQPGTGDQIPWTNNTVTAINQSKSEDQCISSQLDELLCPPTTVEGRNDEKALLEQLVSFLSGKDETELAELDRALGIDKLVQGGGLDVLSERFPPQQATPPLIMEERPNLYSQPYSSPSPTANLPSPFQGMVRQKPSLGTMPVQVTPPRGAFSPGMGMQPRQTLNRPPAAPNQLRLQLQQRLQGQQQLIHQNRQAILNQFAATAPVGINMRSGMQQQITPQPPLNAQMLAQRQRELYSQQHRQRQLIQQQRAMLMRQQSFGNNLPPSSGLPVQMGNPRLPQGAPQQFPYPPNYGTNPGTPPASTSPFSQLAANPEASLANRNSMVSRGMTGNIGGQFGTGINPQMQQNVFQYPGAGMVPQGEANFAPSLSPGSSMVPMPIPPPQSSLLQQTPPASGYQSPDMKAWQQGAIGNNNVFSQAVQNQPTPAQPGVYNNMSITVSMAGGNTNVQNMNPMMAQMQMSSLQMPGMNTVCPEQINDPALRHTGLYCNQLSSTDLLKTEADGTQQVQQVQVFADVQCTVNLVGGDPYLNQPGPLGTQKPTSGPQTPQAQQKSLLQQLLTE

Compound	pIC50	IC50
O=C(Nc1cccc(C(F)(F)F)c1)Nc1nnc([C@@H]2C[C@H](O)[C@@H](CO)O2)s1	5.24	
O=[N+]([O-])c1ccc(N(CCO)CCO)c2c1no[n+]2[O-]		inactive
Cc1cccc(NC(=O)c2cc(Cl)ccc2[N+](=O)[O-])c1		inactive
COc1ccc(/C=C2\CC/C(=C\c3ccc(OC)c(OC)c3)C2=O)cc1OC		> 35.9 µM (inactive)
O=C(N/N=C(\c1ccccc1)c1ccccn1)c1ccccc1Cl		inactive
Cc1nc2c(-c3ccc(Cl)cc3)cnn2c(N)c1-c1ccc(F)cc1		> 35.9 µM (inactive)
Cc1sc2ncnc(N3CCC(C(=O)Nc4ccccc4C(C)(C)C)CC3)c2c1C	5.15	
O=c1[nH]c(O)c(N=Nc2ccc3c(c2)OCCO3)c(=O)[nH]1		> 35.9 µM (inactive)
Cc1ccc(/C=C2\SC(=S)N(CCCC(=O)NC3CCCC3)C2=O)cc1	5.49	
COCCNC(=O)c1cc(-c2ccccn2)nc2ccc(S(=O)(=O)N3CCC(C)CC3)cc12		> 35.9 µM (inactive)
NC(=O)c1sc2nc3c(c(-c4ccco4)c2c1N)CCC3	5.48	
